Several values for one entry are separate records, joined by “and”; a condition that tells them apart may be missing. Identical values can stand only once.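 The compound was tested at five concentrations on cells cultured in 96-well plates, with a 48-hour exposure period. GI50 = concentration required for 50% inhibition of growth. TGI: total growth inhibition.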
Legend:
Test in all cases: NCI-60 cell line screen, 48 h
[1] = system: MALME-3M melanoma
[2] = system: T-47D breast
[3] = system: OVCAR-3 ovarian
[4] = system: NCI/ADR-RES ovarian
[5] = system: HT29 colon
[6] = system: SK-MEL-5 melanoma
[7] = system: A549 NSCLC
[8] = system: NCI-H226 lung
[9] = system: NCI-H522 lung
[10] = system: UACC-62 melanoma

| SMILES | GI50 [1] [µM] | TGI [1] [µM] | GI50 [2] [µM] | TGI [2] [µM] | GI50 [3] | TGI [3] [µM] | GI50 [4] [µM] | TGI [4] [µM] | GI50 [5] [µM] | TGI [5] | GI50 [6] [µM] | TGI [6] [µM] | GI50 [7] [µM] | TGI [7] [µM] | GI50 [8] [µM] | TGI [8] [µM] | GI50 [9] [µM] | TGI [9] [µM] | GI50 [10] | TGI [10] [µM] |
| --- | --- | --- | --- | --- | --- | --- | --- | --- | --- | --- | --- | --- | --- | --- | --- | --- | --- | --- | --- | --- |
| O=C(O)C1(Cc2cccc(Nc3nccs3)n2)CCC(Oc2cccc(Cl)c2F)CC1 (stereo not given) | 20.5 | 54.3 | 15.8 | > 100 | 13.3 µM | 36.4 | 3.48 | > 65.4 | 7.56 | 24.2 µM | 14.8 | 28.7 | 5.8 | > 60 | 11.6 | 39.6 |  |  |  |  |
| COc1cnc2c(c1)C(=O)c1c-2n(CCCN2CCCC2)c(=O)c2cc(F)ccc12 | 0.452 | 1.73 | 0.218 | 10.2 | 0.307 µM | 1.51 | 0.467 | 3.19 | 0.209 | 1.1 µM | 0.309 | 1.29 | 0.0936 | 0.351 | 0.164 | 0.382 | 0.0819 | 1.23 | 0.471 µM | 2.21 |
| CCCCCCCC(=O)SCC/C=C/[C@@H]1CC(=O)NCc2nc(co2)C2=N[C@@](C)(CS2)C(=O)N[C@@H](C(C)C)C(=O)O1 | 0.0112 | > 50 | 0.0312 | 0.201 | 0.0241 µM | 0.156 | 0.606 | > 31.6 | 0.0136 | 7.78 µM | 0.0179 | 0.0776 | 0.0184 | 1.91 | 0.0861 | 2.37 | 0.00808 | 0.121 | 0.00917 µM | 0.0536 |
| N[C@@H]1CCCN(c2c(/C=C3\SC(=O)NC3=O)cccc2-c2ccccc2)C1 | 7.52 | 24.5 | 11.2 | 28.8 | 15.3 µM | 29.4 | 17.4 | 40.4 | 12.8 | 27.8 µM | 11.2 | 23.6 | 13.6 | 31.8 | 12.8 | 36.9 | 11.5 | 25.3 | 13.7 µM | 27.3 |
| CCCCC#CC#Cc1cccc(=O)o1 | 14.1 | 27.6 | 8.34 | 25.7 | 23.9 µM | 69.6 | 17.2 | 37.4 | 13.5 | 36.1 µM |  |  | 39.2 | > 100 | 16.3 | 38.3 | 23.2 | 52.1 | 16.1 µM | 32.8 |
| COc1ccc(-c2cc(-c3cc(OC)c(OC)c(OC)c3)c(C#N)c(N3CCOCC3)n2)cc1O | > 100 | > 100 | 25.4 | > 100 | 2.81 µM | 8.33 | 1.85 | > 100 | 10.3 | > 100 µM | 3.3 | > 75.2 | 4.71 | > 100 | > 100 | > 100 | 5.14 | > 53.6 | 60.2 µM | > 100 |
| CCCCCCCCCCCCOC1C(CNC(=O)C2OC3OC(C)(C)OC3C2NC(=O)CN2CCCCCC2)OC2OC(C)(C)OC21 (stereo not given) | 1.99 | 4.1 | 7.78 | 22.8 | 8.39 µM | 23.8 | 4.14 | 15.7 | 1.87 | 3.74 µM | 1.85 | 3.41 | 4.46 | 17.8 | 16.7 | 38.1 | 5.07 | 17.8 | 1.83 µM | 3.48 |
| COc1ccc2c(c1)[n+](=O)c(C(=O)/C=C/c1cc(OC)c(OC)c(OC)c1)c(C)n2[O-] | 19.1 | 58.7 | 22.8 | > 100 | 27.3 µM | > 100 | 32.3 | > 100 | > 100 | > 100 µM | 40.4 | > 100 | 34.9 | > 100 | 26.3 | 82.4 | 19 | 56.6 | 17.2 µM | 37.3 |
| COc1ccc(-c2cc(=O)c3c(O)cc(C)cc3o2)cc1OC |  | > 100 |  | > 100 |  | > 100 |  | > 100 |  | > 100 µM |  | > 100 |  | > 100 |  | > 100 |  | > 100 |  | > 100 |
| CCN1C(=O)N(c2ccccc2)C2NN=c3s/c(=C4\C(=O)N(C(C)C)c5ccccc54)c(=O)n3C21 (stereo not given) | 1.57 | > 100 | 0.716 | > 100 | 0.886 µM | 3.1 | 0.702 | 3.84 | 1.08 | > 100 µM | 1.04 | 15.5 | 1.43 | > 40.5 | 3.7 | 31.4 | 1.1 | > 77.9 | 0.626 µM | > 100 |
| Nc1nc(N)c2nc(CNc3ccc(C(=O)NC(CCCNC(=O)c4ccccc4C(=O)O)C(=O)O)cc3)cnc2n1 (stereo not given) |  | > 100 |  | > 100 | < 0.0157 µM and 0.0676 µM | > 100 | 0.00273 | > 100 | 0.00102 | > 100 µM | 0.00577 | > 100 | 0.00379 | > 100 | > 100 | > 100 | 0.016 | > 100 | < 0.01 µM and 0.00129 µM | > 100 |
| CC(=O)OCC1O[C@@H]([S-])C(OC(C)=O)[C@H](OC(C)=O)[C@@H]1OC(C)=O.[Au+].c1ccc(CN2[CH-]N(Cc3ccccc3)C(c3ccccc3)=C2c2ccccc2)cc1 | 1.77 | 4.06 |  |  | 1.61 µM | 2.99 | 5.21 | > 100 |  |  | 1.79 | 3.28 | 3.81 | 21.4 | 3 | 9.04 | 1.58 | 3.66 | 1.76 µM | 3.47 |
| NC(=O)/C=C/NC(=O)/C=N\O |  | > 100 |  | > 100 |  | > 100 |  | > 100 |  | > 100 µM |  | > 100 |  |  |  | > 100 |  | > 100 |  | > 100 |
| Cc1nc2n(c(=O)c1CCN1CCC(c3noc4cc(F)ccc34)CC1)CCCC2 | > 50 | > 50 | > 50 | > 50 | > 50 µM | > 50 | > 50 | > 50 | > 50 | > 50 µM |  |  | > 50 | > 50 | > 50 | > 50 | > 50 | > 50 | > 50 µM | > 50 |
| CCc1nc(N)nc(N)c1-c1ccc(NCCc2ccccc2)c([N+](=O)[O-])c1 |  | 9.74 |  | > 52.8 |  | 32.2 |  | 53.7 |  | 22.4 µM |  | 10.1 |  | 21.8 |  | > 69.7 |  |  |  | 15.8 |
| CCC1CCc2nc3sc(C(=O)Nc4ccccc4C)c(N)c3cc2C1 (stereo not given) |  |  | 0.816 | > 100 | 0.351 µM | > 100 | 0.785 | > 100 |  |  | 0.301 | > 100 | 0.616 | > 100 | > 100 | > 100 | 0.775 | > 100 | 0.329 µM | > 100 |
| CNC1C(O)C(OC2C(N)CC(N)C(OC3OC(C(C)O)C(O)C(O)C3N)C2O)OCC1(C)O (stereo not given) |  |  |  | > 100 |  | > 100 |  | > 100 |  | > 100 µM |  | > 100 |  | > 100 |  | > 100 |  | > 100 |  | > 100 |
| CC(=O)[O][Hg][c]1ccccc1 | 0.506 | 1.62 | 0.163 | 0.382 | 0.147 µM | 0.295 | 1.7 | 5.74 | 0.626 | 2.46 µM | 0.472 | 1.82 |  |  | 1.12 | 4.81 | 0.138 | 0.292 | 0.587 µM | 1.91 |
| Nc1nnc(Cn2c(-c3ccccc3)nc3ccc(Br)cc3c2=O)s1 |  |  | > 100 | > 100 | 40 µM | > 100 | 41.2 | > 100 | 48.1 | > 100 µM | 26.8 | 86.2 | 25 | > 100 |  |  | 38.1 | > 100 | 15.2 µM | > 100 |
| CC/C(C)=C1\OC(=O)C(C)C(O)C(Cc2cccnc2)NC(=O)C(NC(=O)c2ncccc2O)C(C)OC1=O (stereo not given) |  | > 100 |  | > 100 |  | > 100 |  |  |  | > 100 µM |  | > 100 |  | > 100 |  |  |  |  |  | > 100 |
| CC(=O)OC1CC2C(C)(C)C(=O)C=CC2(C)C2CCC3(C)C(c4ccoc4)OC(=O)C4OC43C12C (stereo not given) |  |  |  | > 100 |  | > 100 |  | > 100 |  | 39 µM |  | 19.2 |  | 86.9 |  | > 100 |  | 19.8 |  | 18.4 |
| O=C(Oc1ccccc1Cl)c1ccccc1Nc1ccnc(C(F)(F)F)c1 |  |  | 31.2 | > 100 | 0.247 µM | 0.533 | 0.269 | 0.698 | 0.389 | > 100 µM | 0.264 | 0.545 | 1.36 | 21.5 | 0.286 | 0.915 | 0.38 | > 70.3 | 0.165 µM | 2.05 |
| O=C1c2c(O)cc(O)cc2OC(c2ccc(O)cc2O)C1O (stereo not given) | > 100 | > 100 |  | > 100 | > 100 µM | > 100 |  |  | > 100 | > 100 µM | > 100 | > 100 |  | > 100 | > 100 | > 100 | > 100 | > 100 | > 100 µM | > 100 |
| O=C(NCCCCCCCCNC(=O)c1cccc2ccccc12)c1cccc2ccccc12 |  | > 100 |  |  |  | > 79.9 |  | > 100 |  | > 100 µM |  | > 100 |  | > 100 |  | 22.8 |  | > 46.4 |  | > 79.9 |
| CCCCn1sc(=O)n(Cc2ccc(CNC(=O)OCc3ccc4c(Br)cc(Br)c(O)c4n3)cc2)c1=O | 0.831 | > 100 | > 100 | > 100 | 0.292 µM | 0.8 | 0.325 | > 100 | 28.6 | > 100 µM | 0.55 | 2.07 | 3.76 | > 100 |  |  | 0.264 |  | 0.916 µM | > 100 |
| O=C1/C(=C/c2ccccc2)CN(C(=O)OCc2ccccc2)C/C1=C\c1ccccc1 |  | > 46.4 |  | > 100 |  | 10 |  |  | 1.87 | 6.31 µM and 25.5 µM | 3.44 | 30.7 |  | > 46.4 |  | 35.2 |  | 18.5 |  | 20.2 |
| COc1ccc(-c2c(-c3cc(OC)c4c(c3)OCO4)noc2N)cc1 |  |  | 0.0422 | 47.1 | 0.0203 µM | 0.0483 |  |  | 0.0353 | 1.63 µM | 0.0288 | 0.485 | 0.0663 | > 100 | 0.0883 | 4.07 |  | 0.0239 | 0.05 µM | 20.7 |
| O=C(CC(=O)C1CCOC1=O)C(=O)Nc1ccc(Cl)cc1Cl (stereo not given) |  | > 100 |  |  |  | > 100 |  |  |  | > 100 µM |  | > 100 |  | > 100 |  | > 100 |  | > 100 |  | > 100 |
| CSc1ccc(/C=C/c2ccnc3ccccc23)cc1 |  | 32.6 |  | 41.7 |  | 25.9 |  | 29.5 |  | 31 µM |  | 18.9 |  | 25 |  | 29 |  | 28.6 |  |  |
| N#CC1(C=O)c2ccccc2C=CN1C(=O)c1ccccc1 (stereo not given) |  | > 100 |  |  |  | 52.8 |  |  |  | > 100 µM |  | 47.3 |  | > 100 |  | > 100 |  | > 100 |  | > 100 |

From PubChem BioAssay (NCI)
